# Assay results reported in patent US20250026778A1 (TIUMBIO CO., LTD., priority 2021, published 2025).
# Target: T1, his-galectin-3 (Homo sapiens, UniProt P17931)
# T1 construct: purchased Abcam
# Assay: TR-FRET assay (in vitro galectin-3 binding inhibitory activity test)
# Details: Table 2; compound at 20 μM; 60 nM his-galectin-3, 15 nM biotin-ASF; read-out: % Inhibitory activity (at 20 μM)
# Outline: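 Compound is premixed with his-galectin-3 (60 nM final), then biotin-ASF (15 nM), Tb anti-His antibody (2 nM) and streptavidin-d2 (20 nM) are added. After at least 3.5 hours at RT in HEPES/NaCl buffer with Tween 20 and BSA, TR-FRET is read at 615/665 nm. DMSO serves as the uninhibited control, ASF omission as background.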
# T1 sequence (P17931 whole entry): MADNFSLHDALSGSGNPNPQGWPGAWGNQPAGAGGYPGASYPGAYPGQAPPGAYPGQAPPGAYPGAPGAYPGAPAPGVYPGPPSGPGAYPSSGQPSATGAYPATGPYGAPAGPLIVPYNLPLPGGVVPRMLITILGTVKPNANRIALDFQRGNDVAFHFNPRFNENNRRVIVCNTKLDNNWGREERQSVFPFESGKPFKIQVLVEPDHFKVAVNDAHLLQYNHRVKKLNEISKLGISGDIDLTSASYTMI
row,Structure (SMILES),inhibition at 20 µM [%]
1,"Cc1cc(C(=O)N[C@@H]2CCO[C@]23O[C@H](CO)[C@H](O)[C@H](n2cc(-c4cc(F)c(F)c(F)c4)nn2)[C@H]3O)c2cc(Cl)ccc2n1 [Compound A229, 6-chloro-N-((4R,5S,7R,8R,9S,10R)-8,10-dihydroxy-7-(hydroxymethyl)-9-(4-(3,4,5-trifluorophenyl)-1H-1,2,3-triazol-1-yl)-1,6-dioxaspiro[4.5]decan-4-yl)-2-methylquinoline-4-carboxamide]",> 75
2,"Cn1cc(C(=O)N[C@@H]2CCO[C@]23O[C@H](CO)[C@H](O)[C@H](n2cc(-c4cc(F)c(F)c(F)c4)nn2)[C@H]3O)c2cc(Cl)ccc21 [Compound A233, 5-chloro-N-((4R,5S,7R,8R,9S,10R)-8,10-dihydroxy-7-(hydroxymethyl)-9-(4-(3,4,5-trifluorophenyl)-1H-1,2,3-triazol-1-yl)-1,6-dioxaspiro[4.5]decan-4-yl)-1-methyl-1H-indole-3-carboxamide]",50 to 75
3,"Cc1sc2ccccc2c1C(=O)N[C@@H]1CCO[C@]12O[C@H](CO)[C@H](O)[C@H](n1cc(-c3cc(F)c(F)c(F)c3)nn1)[C@H]2O [Compound A234, N-((4R,5S,7R,8R,9S,10R)-8,10-dihydroxy-7-(hydroxymethyl)-9-(4-(3,4,5-trifluorophenyl)-1H-1,2,3-triazol-1-yl)-1,6-dioxaspiro[4.5]decan-4-yl)-2-methylbenzo[b]thiophene-3-carboxamide]",> 75
4,"OC[C@H]1O[C@@]2(CCCO2)[C@H](O)[C@@H](n2cc(-c3cc(F)c(F)c(F)c3)cn2)[C@H]1O [Compound A237, (5S,7R,8R,9S,10R)-7-(hydroxymethyl)-9-(4-(3,4,5-trifluorophenyl)-1H-pyrazol-1-yl)-1,6-dioxaspiro[4.5]decane-8,10-diol]",25 to 50

# More lines, now with the values ahead:
row,inhibition at 20 µM [%],Structure (SMILES)
1,> 75,"Cc1cc(C(=O)N[C@@H]2CCO[C@]23O[C@H](CO)[C@H](O)[C@H](n2cc(-c4cc(F)c(F)c(F)c4)nn2)[C@H]3O)c2cc(F)ccc2n1 [Compound A228, N-((4R,5S,7R,8R,9S,10R)-8,10-dihydroxy-7-(hydroxymethyl)-9-(4-(3,4,5-trifluorophenyl)-1H-1,2,3-triazol-1-yl)-1,6-dioxaspiro[4.5]decan-4-yl)-6-fluoro-2-methylquinoline-4-carboxamide]"
2,50 to 75,"O=C(N[C@@H]1CCO[C@]12O[C@H](CO)[C@H](O)[C@H](n1cc(-c3cc(F)c(F)c(F)c3)nn1)[C@H]2O)c1cccc2occc12 [Compound A230, N-((4R,5S,7R,8R,9S,10R)-8,10-dihydroxy-7-(hydroxymethyl)-9-(4-(3,4,5-trifluorophenyl)-1H-1,2,3-triazol-1-yl)-1,6-dioxaspiro[4.5]decan-4-yl)benzofuran-4-carboxamide]"
3,> 75,"Cc1cc(C(=O)N[C@@H]2CCO[C@]23O[C@H](CO)[C@H](O)[C@H](n2cc(-c4cc(F)c(F)c(F)c4)nn2)[C@H]3O)c2cc(Br)ccc2n1 [Compound A231, 6-bromo-N-((4R,5S,7R,8R,9S,10R)-8,10-dihydroxy-7-(hydroxymethyl)-9-(4-(3,4,5-trifluorophenyl)-1H-1,2,3-triazol-1-yl)-1,6-dioxaspiro[4.5]decan-4-yl)-2-methylquinoline-4-carboxamide]"
4,> 75,"O=C(N[C@@H]1CCO[C@]12O[C@H](CO)[C@H](O)[C@H](n1cc(-c3cc(F)c(F)c(F)c3)nn1)[C@H]2O)c1c[nH]c2cccc(Cl)c12 [Compound A232, 4-chloro-N-((4R,5S,7R,8R,9S,10R)-8,10-dihydroxy-7-(hydroxymethyl)-9-(4-(3,4,5-trifluorophenyl)-1H-1,2,3-triazol-1-yl)-1,6-dioxaspiro[4.5]decan-4-yl)-1H-indole-3-carboxamide]"
5,> 75,"O=C(N[C@@H]1CCO[C@]12O[C@H](CO)[C@H](O)[C@H](n1cc(-c3cc(F)c(F)c(F)c3)cn1)[C@H]2O)c1cccc2ccc(Cl)cc12 [Compound A238, 7-chloro-N-((4R,5S,7R,8R,9S,10R)-8,10-dihydroxy-7-(hydroxymethyl)-9-(4-(3,4,5-trifluorophenyl)-1H-pyrazol-1-yl)-1,6-dioxaspiro[4.5]decan-4-yl)-1-naphthamide]"

# Same assay, conditions: Table 3, found values; compound at 20 μM; 60 nM his-galectin-3, 15 nM biotin-ASF; read-out: % Inhibitory activity (at 20 μM)
row,inhibition at 20 µM [%],Structure (SMILES)
1,66.5,"O=C(N[C@@H]1CCO[C@]12O[C@H](CO)[C@H](O)[C@H](n1cc(-c3cc(F)c(F)c(F)c3)nn1)[C@H]2O)c1cccc2occc12 [Compound A230, N-((4R,5S,7R,8R,9S,10R)-8,10-dihydroxy-7-(hydroxymethyl)-9-(4-(3,4,5-trifluorophenyl)-1H-1,2,3-triazol-1-yl)-1,6-dioxaspiro[4.5]decan-4-yl)benzofuran-4-carboxamide]"
